Where two headings read alike, the source gives them in different places.
Key:
[1] = target: T1, Rat recombinant PDE10A (rPDE10A2) (Rattus norvegicus, UniProt Q9QYJ6); test: In vitro assay PDE10A (SPA, 3H-cAMP); assay type: biochemical; details: pIC50 corresponds to the -log IC50 expressed in mol/L; for IC50: read-out: PDE10A2 pIC50 (converted)
T1 construct: made in house; host or cells: Sf9 insect cells, baculovirus
T1 sequence (Q9QYJ6 1-794): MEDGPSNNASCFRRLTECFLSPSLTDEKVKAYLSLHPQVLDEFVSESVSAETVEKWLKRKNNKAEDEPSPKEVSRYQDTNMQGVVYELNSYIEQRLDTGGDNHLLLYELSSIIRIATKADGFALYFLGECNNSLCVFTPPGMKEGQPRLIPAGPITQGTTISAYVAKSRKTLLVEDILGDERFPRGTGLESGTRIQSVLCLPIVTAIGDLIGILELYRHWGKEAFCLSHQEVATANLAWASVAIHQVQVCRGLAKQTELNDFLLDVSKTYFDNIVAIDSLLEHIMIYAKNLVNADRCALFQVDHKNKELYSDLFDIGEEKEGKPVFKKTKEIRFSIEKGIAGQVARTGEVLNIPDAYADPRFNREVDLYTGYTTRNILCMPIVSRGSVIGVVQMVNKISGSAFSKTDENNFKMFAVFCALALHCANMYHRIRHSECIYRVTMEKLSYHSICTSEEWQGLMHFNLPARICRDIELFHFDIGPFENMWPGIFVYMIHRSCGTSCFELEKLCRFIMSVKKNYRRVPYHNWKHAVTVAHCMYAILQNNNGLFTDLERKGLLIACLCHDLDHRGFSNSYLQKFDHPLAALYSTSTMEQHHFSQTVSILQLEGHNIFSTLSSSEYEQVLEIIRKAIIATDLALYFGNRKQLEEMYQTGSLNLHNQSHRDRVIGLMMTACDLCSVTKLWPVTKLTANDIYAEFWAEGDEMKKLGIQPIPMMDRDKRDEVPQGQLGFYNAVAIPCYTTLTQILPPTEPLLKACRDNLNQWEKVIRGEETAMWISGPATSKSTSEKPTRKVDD
Experimental: Rat recombinant PDE10A (rPDE10A2) was expressed in Sf9 cells using a recombinant rPDE10A baculovirus construct. Cells were harvested after 48 h of infection and the rPDE10A protein was purified by metal chelate chromatography on Ni-sepharose 6FF. Tested compounds were dissolved and diluted in 100% DMSO to a concentration 100 fold of the final concentration in the assay. Compound dilutions (0.4 μl) were added in 384 well plates to 20 μl of incubation buffer (50 mM Tris pH 7.8, 8.3 mM MgCl2, 1.7 mM EGTA). 10 μl of rPDE10A enzyme in incubation buffer was added and the reaction was started by addition of 10 μl substrate to a final concentration of 60 nM cAMP and 0.008 μCi ^3H-cAMP. The reaction was incubated for 60 min. at RT. […] After sedimentation of the beads during 30 min. the radioactivity was measured in a Perkin Elmer Topcount scintillation counter and results were expressed as cpm. For blank values the enzyme was omitted from the reaction and replaced by incubation buffer. Control values were obtained by addition of a final concentration of 1% DMSO instead of compound. The same assay principle is applied for the measurement of the affinity of the compound for other members of the PDE family with appropriate modifications in incubation buffer, substrate concentration, incubation time and stop solution.

[2] = tested on: apomorphine-induced stereotypy; test: Apomorphine-induced stereotypy in rats (APO); assay type: in vivo; details: Rattus norvegicus
Experimental: Apomorphine-Induced Stereotypy in Rats (APO)
Apomorphine (1.0 mg/kg, i.v.)-induced stereotypy (compulsive sniffing, licking, chewing) was scored every 5 min. over the first hour after injection of apomorphine, following a 1 hour interval pre-treatment with the test compound. The score system was: (3) pronounced, (2) moderate, (1) slight, and (O) absent.

[3] = not active at 2.5 or at 10 mg/kg, not further tested, read-out: APO ED50 (not active at threshold dose)

Structure (SMILES) | IC50 [1] [nM] | ED50 [2, 3] [mg/kg] | PDE10A2 pIC50 [1] | ED50 ([2]; read-out: APO ED50) [mg/kg] | ED50 ([2]; po, * compound was not soluble and was tested orally as a suspension, read-out: APO ED50) [mg/kg]
Cc1nc2c(N3CCOCC3)nccn2c1-c1ccnc(N2CCCC2)c1 [compound 99] | 151 | > 2.5 | – | – | –
Cc1nc2c(N3CCOCC3)nccn2c1-c1cnn(CC2CCCO2)c1 (single isomer, unassigned) [compound 90] | 135 | > 2.5 | – | – | –
Cc1nc2c(N3CCOCC3)nccn2c1-c1ccnc(CC(C)C)c1 [compound 27, 3-(2-Isobutyl-pyridin-4-yl)-2-methyl-8-morpholin-4-yl-imidazo[1,2-a]pyrazine] | 74.1 | > 2.5 | – | – | –
Cc1nc2c(N3CCOCC3)nccn2c1-c1cnn(C(C)C)c1 [compound 81] | – | > 2.5 | 6.95 | – | –
COC[C@@H](C)n1cc(-c2c(C)nc3c(-c4ccncc4)nccn23)cn1 [compound 104] | 170 | – | – | 5 | –
CO[C@@H](C)Cn1cc(-c2c(C)nc3c(-c4ccncc4)nccn23)cn1 [compound 101] | 162 | – | – | 3.1 | –
COC(C)(C)CCc1ccc(-c2c(C)nc3c(N4CCOCC4)nccn23)cn1 [compound 29, 3-[6-(3-Methoxy-3-methyl-butyl)-pyridin-3-yl]-2-methyl-8-morpholin-4-yl-imidazo[1,2-a]pyrazine] | 219 | – | – | 1.2 | –
c1cn2c(-c3ccc(N4CCOCC4)nc3)c(C3CC3)nc2c(N2CCOCC2)n1 [compound 63] | 83.2 | > 2.5 | – | – | –
COC(C)(C)COc1ccc(-c2c(C3CC3)nc3c(N4CCOCC4)nccn23)cn1 [compound 105] | 174 | > 2.5 | – | – | –
Cc1nc2c(N3CCOCC3)nccn2c1-c1cnn(CC2CCCO2)c1 (single isomer, unassigned) [compound 71] | 95.5 | – | – | 5 | –
Cc1nc2c(N3CCOCC3)nccn2c1-c1cnn(CC2CCOCC2)c1 [compound 89] | 135 | – | – | ≤ 10 | –
COCCCn1cc(-c2c(C)nc3c(N4CCOCC4)nccn23)cn1 [compound 68] | 87.1 | – | – | 3.1 | –
Cc1nc2c(N3CCOCC3)nccn2c1-c1cnn(Cc2cccnc2)c1 [compound 65] | 85.1 | – | – | 5 | –
Cc1nc2c(N3CCOCC3)nccn2c1-c1cnn(C2CCOC2)c1 (stereo not drawn) [compound 82] | 115 | – | – | 3.1 | –
Cc1nc2c(N3CCOCC3)nccn2c1-c1cnn(Cc2ccccc2Cl)c1 [compound 94] | – | > 2.5 | 6.86 | – | –
Cc1nc2c(N3CCOCC3)nccn2c1-c1ccc(OCC(F)(F)F)nc1 [compound 122] | 380 | > 2.5 | – | – | –
Cc1nc2c(N3CCOCC3)nccn2c1-c1ccnc(NC(C)C)c1 [compound 22, Isopropyl-[4-(2-methyl-8-morpholin-4-yl-imidazo[1,2-a]pyrazin-3-yl)-pyridin-2-yl]-amine] | 97.7 | > 2.5 | – | – | –
c1cn2c(-c3ccc(C4CCOCC4)nc3)c(C3CC3)nc2c(N2CCOCC2)n1 [compound 83] | 115 | > 2.5 | – | – | –
Cc1nc2c(N3CCOCC3)nccn2c1-c1cnn(CC(F)(F)F)c1 [compound 49] | – | – | 7.33 | 5 | –
COCCc1ncc(-c2c(C)nc3c(N4CCOCC4)nccn23)cc1F [compound 17, 3-[5-Fluoro-6-(2-methoxy-ethyl)-pyridin-3-yl]-2-methyl-8-morpholin-4-yl-imidazo[1,2-a]pyrazine] | 275 | > 2.5 | – | – | –
COC(C)CCn1cc(-c2c(C)nc3c(N4CCOCC4)nccn23)cn1 (single isomer, unassigned) [compound 61] | 79.4 | – | – | 5 | –
Cc1nc2c(-c3ccncc3)nccn2c1-c1ccc(N2CCOCC2)nc1 [compound 115] | 263 | – | – | 5 | –

Structure (SMILES) | IC50 [1] [nM] | ED50 [2, 3] [mg/kg] | PDE10A2 pIC50 [1] | ED50 ([2]; read-out: APO ED50) [mg/kg] | ED50 ([2]; po, * compound was not soluble and was tested orally as a suspension, read-out: APO ED50) [mg/kg]
Cc1nc2c(N3CCOCC3)nccn2c1-c1cnn(Cc2ccccn2)c1 [compound 76] | 102 | – | – | 3.1 | –
COC[C@@H](C)n1cc(-c2c(C)nc3c(N4CCOCC4)nccn23)cn1 [compound 110] | 214 | – | – | 3.1 | –
COCCc1ccc(-c2cnc3c(N4CCOCC4)nccn23)cn1 [compound 136] | 575 | > 2.5 | – | – | –
COc1nc2c(N3CCOCC3)nccn2c1-c1ccc(CC(C)(C)OC)nc1 [compound 95] | 141 | > 2.5 | – | – | –
CC(=O)CCn1cc(-c2c(C)nc3c(N4CCOCC4)nccn23)cn1 [compound 36, 4-[4-(2-Methyl-8-morpholin-4-yl-imidazo[1,2-a]pyrazin-3-yl)-pyrazol-1-yl]-butan-2-one] | 138 | – | – | 3.1 | –
Cc1nc2c(N3CCOCC3)nccn2c1-c1cnn(CC(F)F)c1 [compound 56] | 57.5 | – | – | – | 3.1
Cc1nc2c(N3CCOCC3)nccn2c1-c1cnn(Cc2ccc(Cl)cc2)c1 [compound 121] | 372 | > 2.5 | – | – | –
Cc1nc2c(N3CCOCC3)nccn2c1-c1cnn(CC2CC2)c1 [compound 62] | 79.4 | > 2.5 | – | – | –
COC[C@H](C)n1cc(-c2c(C)nc3c(-c4ccncc4)nccn23)cn1 [compound 79] | 107 | – | – | 5 | –
COC(C)CCn1cc(-c2c(C)nc3c(N4CCOCC4)nccn23)cn1 (single isomer, unassigned) [compound 84] | 117 | > 2.5 | – | – | –
Cc1nc2c(N3CCOCC3)nccn2c1-c1cnn(Cc2ccc3ccccc3n2)c1 [compound 112] | – | > 2.5 | 6.63 | – | –
COCCCn1cc(-c2c(C)nc3c(-c4ccncc4)nccn23)cn1 [compound 102] | 166 | – | – | 5 | –
CCn1cc(-c2c(C)nc3c(N4CCOCC4)nccn23)cn1 [compound 38, 3-(1-Ethyl-1H-pyrazol-4-yl)-2-methyl-8-morpholin-4-yl-imidazo[1,2-a]pyrazine] | – | – | 6.63 | ≤ 10 | –
CO[C@H]1CCN(c2ccc(-c3c(C)nc4c(N5CCOCC5)nccn34)cn2)C1 [compound 24, (S)-3-[6-(3-Methoxy-pyrrolidin-1-yl)-pyridin-3-yl]-2-methyl-8-morpholin-4-yl-imidazo[1,2-a]pyrazine] | – | > 2.5 | – | – | –
Cc1nc2c(N3CCOCC3)nccn2c1-c1ccc(N2CCNCC2)nc1 [compound 23, 2-Methyl-8-morpholin-4-yl-3-(6-piperazin-1-yl-pyridin-3-yl)-imidazo[1,2-a]pyrazine] | – | > 2.5 | – | – | –
COCCc1ccc(-c2c(C(C)C)nc3c(N4CCOCC4)nccn23)cn1 [compound 13, 2-Isopropyl-3-[6-(2-methoxy-ethyl)-pyridin-3-yl]-8-morpholin-4-yl-imidazo[1,2-a]pyrazine] | – | > 2.5 | – | – | –
COCCc1ccc(-c2c(C)nc3c(N4CCCC4)nccn23)cn1 [compound 124] | – | > 2.5 | – | – | –
Cc1nc2c(N3CCOCC3)nccn2c1-c1ccc(CCO)nc1 [compound 18, 2-[5-(2-Methyl-8-morpholin-4-yl-imidazo[1,2-a]pyrazin-3-yl)-pyridin-2-yl]-ethanol] | – | > 2.5 | – | – | –
COCCn1cc(-c2c(C)nc3c(N4CCOCC4)nccn23)cn1 [compound 35, 2-Methyl-3-[1-(2-methoxy-ethyl)-1H-pyrazol-4-yl]-8-morpholin-4-yl-imidazo[1,2-a]pyrazine] | – | – | – | 5 | –
Cc1nc2c(N3CCOCC3)nccn2c1-c1ccc(NC(C)C)nc1 [compound 103] | – | > 2.5 | – | – | –
COCCCc1ccc(-c2c(C)nc3c(N4CCOCC4)nccn23)cn1 [compound 6, 3-[6-(3-Methoxy-propyl)-pyridin-3-yl]-2-methyl-8-morpholin-4-yl-imidazo[1,2-a]pyrazine] | – | – | – | ≤ 2.5 | –
